Test results: US9416141B2 (University of Washington through its Center for …, priority 2012, dated 2016)
Where a name gives a salt, the structure may show the parent alone. Read-outs that look alike come from different tables or passages of the source.

Test system: hair cells
Assay: Hair cell toxicity assay in zebrafish (neomycin-induced hair cell death, DASPEI staining of neuromasts)
Format: in vivo
Conditions: for Emax at 25 µM: maximum observed @ 25 μM test compound; for EC50: zebrafish larvae 5-7 dpf, 1 h pre-treatment, then 200 micromolar neomycin + test compound 30 min, read-out: HC50 (concentration that would produce 50% hair cell survival); for Emax at 2.8 µM: maximum observed @ 2.8 μM test compound; for Emax at 8.3 µM: maximum observed @ 8.3 μM test compound
Procedure: Zebrafish are bred and newly fertilized embryos are collected the week prior and raised at 28.5° C. in petri dishes containing embryo medium. Newly hatched free-swimming larvae are fed paramecium and dry fish food at 4 days post fertilization (dpf) with lights on. For treatment, fish 5-7 dpf are transferred to cell culture baskets and place within a well of a 6-well plate containing 7 milliliters of 1× embryo medium. Typically, tests are done with ten fish per basket but work well with up to 50 fish. All treatment and wash volumes are 7 milliliters. • 1. Fish are pre-treated with test compound for 1 hour. […] Treat with 200 micromolar neomycin (neomycin sulfate, Sigma, St. Louis, Mo., catalog #N1142)+test compound for 30 minutes. • 3. Rinse fish briefly 4 times in embryo medium and add 700 μl of 0.05% DASPEI (2-{4-(dimethylamino)styryl}-N-ethylpyridinium iodide, Molecular Probes, Eugene, Oreg.) and allowed to stain for 15 minutes. • 4. Rinse twice in embryo medium and add 350 μl MS222 (0.55 ug/ml final concentration, 3-aminobenzoic acid ethyl ester, methansulfoneate salt, Sigma, St. Louis, Mo.) to anesthetize. • 5. View with epifluorescence dissecting microscope equipped with a DAPSEI filter set (excitation […], Chroma Technologies, Brattleboro, Vt.). For assessment of initial dose response curves, fish are transferred to wide depression slide with wide-bore pipette. The DASPEI staining of ten neuromasts (SO1, SO2, IO1, IO2, IO3, IO4, M2, MI1, MI2 and O2) on one side of an animal are evaluated. Each neuromast is scored for presence of DASPEI staining (score=2), reduced DASPEI staining (score=1) or absence of DASPEI staining (score=0). Total scores for an animal are tabulated, to give a composite score that can range from 0 to 20. Average scores and standard deviations are calculated for animals in each treatment group. Scores are normalized to control group (vehicle only, no drug, no neomycin) and expressed as % hair cell survival. HCmax is the maximum protection (hair cell survival) observed. • 6. If at least 50% hair cells survive, the HC50 (concentration that would produce 50% hair cell survival) is calculated as a linear extrapolation from the nearest concentrations of protective drug that produce hair cell survival below and above 50%. If less than 50% hair cells survive, the HC50 is not determined. 1× embryo media (standard lab EM): • 1 mM MgSO4, • 0.15 mM KH2PO4, • 0.05 mM Na2HPO4, • 1 mM CaCl2, • 0.5 mM KCl • 15 mM NaCl • 0.7 mM NaHCO3

[1] = Danio rerio, 200 micromolar neomycin, read-out: Max HC Protection (HCmax, % hair cell survival)

SMILES	Emax at 25 µM [1]	EC50 (Danio rerio)	also measured
CC(C)(C)C[N+]1(C)CCc2c(sc(NC(=O)Nc3ccc4ccccc4c3)c2C(N)=O)C1 (centres unmarked) [Example 193, 3-Carbamoyl-6-methyl-2-(3-naphthalen-2-ylureido)-6-neopentyl-4,5,6,7-tetrahydrothieno[2,3-c]pyridin-6-ium trifluoroacetate]	98%	< 1 µM	–
NC(=O)c1c(NC(=O)Nc2ccc(Cl)cc2)sc2c1CCN(CCO)C2 [Example 60, 2-[3-(4-Chlorophenyl)ureido]-6-(2-hydroxyethyl)-4,5,6,7-tetrahydrothieno[2,3-c]pyridine-3-carboxamide hydrochloride]	71%	1 to 10 µM	–
NC(=O)c1c(NC(=O)Nc2ccc(Cl)cc2)sc2c1CCN(CCC(=O)O)C2 [Example 52, 3-{3-Carbamoyl-2-[3-(4-chlorophenyl)ureido]-4,5-dihydrothieno[2,3-c]pyridin-6(7H)-yl}propanoic acid trifluoroacetate]	33%	–	–
CCN1CCc2c(sc(NC(=O)Nc3ccc(Cl)cc3)c2C#N)C1 [Example 87, 1-(4-Chlorophenyl)-3-(3-cyano-6-ethyl-4,5,6,7-tetrahydrothieno[2,3-c]pyridin-2-yl)urea]	11%	–	–
CCOC(=O)CCCN1CCc2c(sc(NC(=O)Nc3ccc(Cl)cc3)c2C(N)=O)C1 [Example 21, Ethyl 4-{3-carbamoyl-2-[3-(4-chlorophenyl)ureido]-4,5-dihydrothieno[2,3-c]pyridin-6(7H)-yl}butanoate hydrochloride]	–	1 to 10 µM	Emax at 2.8 µM [1]: 57%
NC(=O)c1c(NC(=O)Nc2ccc(Cl)cc2)sc2c1CC1CCC2N1 (racemic) [Example 124, (+/−)-2-[3-(4-chlorophenyl)ureido]-5,6,7,8-tetrahydro-4H-5,8-epiminocyclohepta[b]thiophene-3-carboxamide hydrochloride]	–	–	EC50: < 1 µM
COC(=O)CCC[N+]1(C)CCc2c(sc(NC(=O)Nc3ccc(Cl)cc3)c2C(N)=O)C1 (centres unmarked) [Example 158, 3-Carbamoyl-2-[3-(4-chlorophenyl)ureido]-6-(4-methoxy-4-oxobutyl)-6-methyl-4,5,6,7-tetrahydrothieno[2,3-c]pyridin-6-ium iodide]	80%	1 to 10 µM	–
CC(C)(O)CN1CCc2c(sc(NC(=O)Nc3ccc(Cl)cc3)c2C(N)=O)C1 [Example 119, 2-[3-(4-chlorophenyl)ureido]-6-(2-hydroxy-2-methylpropyl)-4,5,6,7-tetrahydrothieno[2,3-c]pyridine-3-carboxamide]	65%	1 to 10 µM	–
C[N+]12CCCCC1c1sc(NC(=O)Nc3ccc(Cl)cc3)c(C(N)=O)c1CC2 (racemic) [Example 178, (+/−)-3-Carbamoyl-2-[3-(4-chlorophenyl)ureido]-6-methyl-4,5,6,7,8,9,10,10a-octahydrothieno[2,3-a]quinolizin-6-ium chloride]	102%	1 to 10 µM	–
CCN1Cc2sc(NC(=O)Nc3ccc(Cl)cc3)c(C(N)=O)c2C1 [Example 28, 2-[3-(4-Chlorophenyl)ureido]-5-ethyl-5,6-dihydro-4H-thieno[2,3-c]pyrrole-3-carboxamide hydrochloride]	–	1 to 10 µM	Emax at 8.3 µM [1]: 58%
CCN1CCc2c(sc(NC(=O)Nc3ccc(F)c(F)c3)c2C(N)=O)C1 [Example 70, 2-[3-(3,4-Difluorophenyl)ureido]-6-ethyl-4,5,6,7-tetrahydrothieno[2,3-c]pyridine-3-carboxamide hydrochloride]	64%	1 to 10 µM	–
CC(C)C[N+]1(C)CCc2c(sc(NC(=O)Nc3ccc(Cl)c4ccccc34)c2C(N)=O)C1 (centres unmarked) [Example 181, 3-Carbamoyl-2-[3-(4-chloronaphthalen-1-yl)ureido]-6-isobutyl-6-methyl-4,5,6,7-tetrahydrothieno[2,3-c]pyridin-6-ium iodide]	93%	1 to 10 µM	–
CC(C)(C)c1ccc(CCC(=O)NCCCN2CCc3c(sc(NC(=O)Nc4ccc(Cl)cc4)c3C(N)=O)C2)cc1 [Example 213, 6-{3-[3-(4-tert-butylphenyl)propanamido]propyl}-2-{[(4-chlorophenyl)carbamoyl]amino}-4H,5H,6H,7H-thieno[2,3-c]pyridine-3-carboxamide]	–	< 1 µM	Emax at 2.8 µM [1]: 92%
CCN1CCc2c(sc(NC(=O)Nc3cn(C)c4ccccc34)c2C(N)=O)C1 [Example 82, 6-Ethyl-2-[3-(1-methyl-1H-indol-3-yl)ureido]-4,5,6,7-tetrahydrothieno[2,3-c]pyridine-3-carboxamide hydrochloride]	23%	–	–
CC(C)(C)OC(=O)CN1CCc2c(sc(NC(=O)Nc3ccc(Cl)cc3)c2C(N)=O)C1 [Example 58, tert-butyl 2-{3-carbamoyl-2-[3-(4-chlorophenyl)ureido]-4,5-dihydrothieno[2,3-c]pyridin-6(7H)-yl}acetate]	–	–	Emax at 2.8 µM [1]: 7%
CC[N+]1(C)CCCc2c(sc(NC(=O)Nc3ccc(Cl)cc3)c2C(N)=O)C1 (centres unmarked) [Example 173, 3-Carbamoyl-2-[3-(4-chlorophenyl)ureido]-7-ethyl-7-methyl-5,6,7,8-tetrahydro-4H-thieno[2,3-c]azepin-7-ium iodide]	102%	1 to 10 µM	–
CN1C2CCC1c1sc(NC(=O)Nc3ccc(Cl)cc3)c(C(N)=O)c1C2 (racemic) [Example 125, (+/−)-2-[3-(4-chlorophenyl)ureido)-9-methyl-5,6,7,8-tetrahydro-4H-5,8-epiminocyclohepta[b]thiophene-3-carboxamide hydrochloride]	–	< 1 µM	Emax at 8.3 µM [1]: 99%
CC(C)CN1CCc2c(sc(NC(=O)Nc3ccc(Cl)cc3)c2C(N)=O)C1 [Example 26, 2-[3-(4-Chlorophenyl)ureido]-6-isobutyl-4,5,6,7-tetrahydrothieno[2,3-c]pyridine-3-carboxamide hydrochloride]	–	1 to 10 µM	Emax at 8.3 µM [1]: 68%
CC(C)CN1CCc2c(sc(NC(=O)Nc3ccc(Cl)c4ccccc34)c2C(N)=O)C1 [Example 39, 2-[3-(4-Chloronaphthalen-1-yl)ureido]-6-isobutyl-4,5,6,7-tetrahydrothieno[2,3-c]pyridine-3-carboxamide hydrochloride]	56%	> 10 µM	–
C[N+]1(CC2CCC2)CCc2c(sc(NC(=O)Nc3ccc(Cl)c4ccccc34)c2C(N)=O)C1 (centres unmarked) [Example 182, 3-Carbamoyl-2-[3-(4-chloronaphthalen-1-yl)ureido]-6-(cyclobutylmethyl)-6-methyl-4,5,6,7-tetrahydrothieno[2,3-c]pyridin-6-ium chloride]	–	1 to 10 µM	Emax at 83 µM (Danio rerio, maximum observed @ 83 μM test compound, 200 micromolar neomycin, read-out: Max HC Protection (HCmax, % hair cell survival)): 76%
CC(C)(C)CN1CCc2c(sc(NC(=O)Nc3ccc(Cl)cc3)c2C(N)=O)C1 [Example 27, 2-[3-(4-Chlorophenyl)ureido]-6-neopentyl-4,5,6,7-tetrahydrothieno[2,3-c]pyridine-3-carboxamide hydrochloride]	79%	1 to 10 µM	–
CCN1CCc2c(sc(NC(=O)NC3CCCCC3)c2C(N)=O)C1 [Example 68, 2-(3-Cyclohexylureido)-6-ethyl-4,5,6,7-tetrahydrothieno[2,3-c]pyridine-3-carboxamide hydrochloride]	5%	–	–
C[N+]1(C)C2CCC1c1sc(NC(=O)Nc3ccc(Cl)cc3)c(C(N)=O)c1C2 (racemic) [Example 188, (+/−)-3-Carbamoyl-2-[3-(4-chlorophenyl)ureido]-9,9-dimethyl-5,6,7,8-tetrahydro-4H-thienocyclohepten-5,8-iminium iodide]	59%	1 to 10 µM	–
CCN1CCc2c(sc(NC(=O)Nc3ccc(Cl)c4ccccc34)c2C(N)=O)C1 [Example 228, 2-{[(4-chloronaphthalen-1-yl)carbamoyl]amino}-6-ethyl-4H,5H,6H,7H-thieno[2,3-c]pyridine-3-carboxamide]	93%	1 to 10 µM	–
CCN1CCc2c(sc(NC(=O)Nc3ccc(Cl)s3)c2C(N)=O)C1 [Example 94, 2-[3-(5-Chlorothiophen-2-yl)ureido]-6-ethyl-4,5,6,7-tetrahydrothieno[2,3-c]pyridine-3-carboxamide hydrochloride]	69%	> 10 µM	–
